# How the values were obtained:
# Test in all cases: relative viability (nuclei count vs DMSO), 5 days (fraction); higher = more cells survive
# [1] = compound: CN(C)C/C=C/C(=O)Nc1cc2c(Nc3ccc(F)c(Cl)c3)ncnc2cc1O[C@H]1CCOC1 [Afatinib] + COc1cc2c(Oc3ccc(NC(=O)C4(C(=O)Nc5ccc(F)cc5)CC4)cc3F)ccnc2cc1OCCCN1CCOCC1 [Foretinib] (partner 0.25 µM)
# Method in brief: (§1)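 One day after seeding in 1536-well plates, lung cancer cell lines were dosed by pin tool. Dosing was either single-drug or a fixed anchor-drug dose plus five library-drug doses (not always all listed) in √10 steps. After 5 days, nuclei were stained in one fix-and-stain step and counted on 4× images, and relative viability is the nuclei count of treated wells over that of vehicle wells, given as the median of duplicate plates.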
# [2] = compound: CN(C)C/C=C/C(=O)Nc1cc2c(Nc3ccc(F)c(Cl)c3)ncnc2cc1O[C@H]1CCOC1 [Afatinib] + CS(=O)(=O)N1CCN(Cc2cc3nc(-c4cccc5[nH]ncc45)nc(N4CCOCC4)c3s2)CC1 [Pictilisib] (partner 1 µM)
# Method in brief: as §1
# [3] = compound: CN(C)C/C=C/C(=O)Nc1cc2c(Nc3ccc(F)c(Cl)c3)ncnc2cc1O[C@H]1CCOC1 [Afatinib] + NC(=O)Nc1cc(-c2cccc(F)c2)sc1C(=O)N[C@H]1CCCNC1 [AZD7762] (partner 0.2 µM)
# Method in brief: as §1
# [4] = compound: CN(C)C/C=C/C(=O)Nc1cc2c(Nc3ccc(F)c(Cl)c3)ncnc2cc1O[C@H]1CCOC1 [Afatinib] + O=C(CCCCCCC(=O)Nc1ccccc1)NO [Vorinostat] (partner 1 µM)
# Method in brief: as §1
Cell Line,relative viability ([1]; first compound 0.005 µM),relative viability ([1]; first compound 0.01581 µM),relative viability ([1]; first compound 0.05 µM),relative viability ([1]; first compound 0.1581 µM),relative viability ([1]; first compound 0.5 µM),relative viability ([2]; first compound 0.005 µM),relative viability ([2]; first compound 0.01581 µM),relative viability ([2]; first compound 0.05 µM),relative viability ([2]; first compound 0.1581 µM),relative viability ([2]; first compound 0.5 µM),relative viability ([3]; first compound 0.005 µM),relative viability ([3]; first compound 0.01581 µM),relative viability ([3]; first compound 0.05 µM),relative viability ([3]; first compound 0.1581 µM),relative viability ([3]; first compound 0.5 µM),relative viability ([4]; first compound 0.005 µM),relative viability ([4]; first compound 0.05 µM),relative viability ([4]; first compound 0.1581 µM),relative viability ([4]; first compound 0.5 µM),relative viability ([4]; first compound 0.01581 µM)
ABC-1,1.25,1.01,1.08,0.743,1.21,0.816,0.52,0.679,0.578,0.762,0.631,0.717,0.666,0.662,1.09,1.47,1.13,1.24,1.08,
HCC-15,1.04,1.15,1.08,1.07,0.988,0.806,0.72,0.647,0.714,0.66,1.14,1.39,1.32,1.19,1.05,0.904,0.816,0.785,0.887,0.92
NCI-H2170,0.962,1.01,0.906,0.369,0.294,0.285,0.228,0.237,0.185,0.209,0.66,0.55,0.245,0.144,0.151,0.618,0.271,0.201,0.2,0.697
PC-3 [JPC-3],0.472,0.508,0.42,0.388,0.343,0.429,0.323,0.339,0.3,0.355,0.52,0.413,0.307,0.353,0.422,0.531,0.287,0.326,0.328,0.339
NCI-H1993,0.551,0.598,0.6,0.675,0.618,0.93,0.937,0.983,1.03,0.868,0.548,0.521,0.544,0.432,0.416,0.662,0.731,0.466,0.541,0.437
NCI-H358,0.512,0.423,0.286,0.167,0.197,0.305,0.241,0.279,0.288,0.269,0.406,0.373,0.284,0.273,0.22,0.514,0.375,0.207,0.253,0.432
NCI-H1915,1.19,1.05,1.11,1.02,0.974,1.05,0.993,0.951,0.912,0.855,0.67,0.708,0.685,0.723,0.682,0.525,0.497,0.476,0.464,0.518
RERF-LC-KJ,0.844,0.86,0.82,0.8,0.794,0.543,0.507,0.414,0.35,0.392,1.01,0.827,0.865,0.84,0.778,0.713,0.544,0.574,0.519,0.636

# From the supplement of paper PMC10307832
